# Values of other authors, collected in article PMC6658998, “Pharmacological characterization of the seven human NOX isoforms and their inhibitors” (Redox Biology, 2019).
# Target: NOX4
# Set-up: method as in PMID 27273790
# Details: documented values, measured using Amplex Red/HRP assay; cited from earlier work
smiles,measurement,value
Cc1c2c(=O)n(-c3ccccc3Cl)[nH]c2cc(=O)n1Cc1ccccn1 [GKT136901],Ki NOX4,nanomolar range
